Data reported in ChEMBL document CHEMBL5370549, “Optimization and evaluation of pyridinyl vinyl sulfones as Nrf2 activator for the antioxidant and anti-inflammatory effects” (Eur J Med Chem, 2023).
Calls of active or inactive are those of the source. No cut-off for these calls is given here.

What was measured:
Mus musculus [1] = assay: (§1) Antiinflammatory activity against LPS-induced neuroinflammation C57BL/6N mouse model assessed as reduction of glial cell reactivity by measuring reduction in IBA1 expression in cortex at 20 mg/kg/day, po administered for 3 days followed by LPS administration for 7 days by immunofluorescence staining based analysis; format: functional, organism-based; details: time 10.0 day
[2] = biological target: T1, Nuclear factor erythroid 2-related factor 2 (Mus musculus) (UniProt Q60795); assay: Activation of Nrf2 in mouse BV-2 cells assessed as increase in Gclm mRNA expression incubated for 3 hrs by qRT-PCR analysis; format: cell-based; details: filed as activator, dose 0.01-3 µM
T1 sequence (whole entry): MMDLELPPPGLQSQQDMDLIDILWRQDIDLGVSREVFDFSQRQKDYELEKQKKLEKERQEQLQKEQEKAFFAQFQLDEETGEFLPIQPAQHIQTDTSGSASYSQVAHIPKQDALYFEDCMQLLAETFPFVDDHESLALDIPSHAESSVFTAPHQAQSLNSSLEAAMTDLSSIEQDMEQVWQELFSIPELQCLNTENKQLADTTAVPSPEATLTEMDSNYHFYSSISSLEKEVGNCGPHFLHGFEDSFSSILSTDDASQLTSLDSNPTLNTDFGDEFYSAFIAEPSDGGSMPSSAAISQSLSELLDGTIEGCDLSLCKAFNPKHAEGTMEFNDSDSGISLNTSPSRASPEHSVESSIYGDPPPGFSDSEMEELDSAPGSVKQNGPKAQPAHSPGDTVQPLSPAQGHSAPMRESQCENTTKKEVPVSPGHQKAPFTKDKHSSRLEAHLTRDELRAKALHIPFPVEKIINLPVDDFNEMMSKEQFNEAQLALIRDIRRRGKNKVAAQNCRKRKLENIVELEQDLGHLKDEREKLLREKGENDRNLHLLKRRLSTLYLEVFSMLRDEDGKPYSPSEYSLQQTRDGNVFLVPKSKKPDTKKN

[3] = biological target: T1, Nuclear factor erythroid 2-related factor 2 (Mus musculus); assay: Activation of Nrf2 in mouse BV-2 cells assessed as increase in GCLM protein expression at 3 uM measured after 48 hrs by immunoblot analysis; format: cell-based; details: filed as activator
[4] = biological target: T1, Nuclear factor erythroid 2-related factor 2 (Mus musculus); assay: Activation of Nrf2 in mouse BV-2 cells assessed as increase in GCLM protein expression measured after 12 hrs by immunoblot analysis; format: cell-based; details: filed as activator, dose 0.01-3 µM
Mus musculus [5] = assay: Cognitive enhancing activity against LPS-induced neuroinflammation C57BL/6N mouse model assessed as […] memory improvement by measuring delayed step-through latency at 20 mg/kg/day, po administered for 3 days followed by LPS administration for 7 days by passive avoidance test; format: functional, organism-based; details: time 10.0 day
[6] = biological target: T1, Nuclear factor erythroid 2-related factor 2 (Mus musculus); assay: Activation of Nrf2 in mouse BV-2 cells assessed as increase in HO-1 protein expression at 3 uM measured after 9 hrs by immunoblot analysis; format: cell-based; details: filed as activator
CYP2C19 = CYP2C19 (Homo sapiens, UniProt P33261); assay: Inhibition of CYP2C19 (unknown origin) assessed as enzyme activity at 10 uM relative to control; format: ADME; design: scale not given: the % may be the effect or the level left; details: read-out: Activity
Chain of CYP2C19 (P33261 whole entry): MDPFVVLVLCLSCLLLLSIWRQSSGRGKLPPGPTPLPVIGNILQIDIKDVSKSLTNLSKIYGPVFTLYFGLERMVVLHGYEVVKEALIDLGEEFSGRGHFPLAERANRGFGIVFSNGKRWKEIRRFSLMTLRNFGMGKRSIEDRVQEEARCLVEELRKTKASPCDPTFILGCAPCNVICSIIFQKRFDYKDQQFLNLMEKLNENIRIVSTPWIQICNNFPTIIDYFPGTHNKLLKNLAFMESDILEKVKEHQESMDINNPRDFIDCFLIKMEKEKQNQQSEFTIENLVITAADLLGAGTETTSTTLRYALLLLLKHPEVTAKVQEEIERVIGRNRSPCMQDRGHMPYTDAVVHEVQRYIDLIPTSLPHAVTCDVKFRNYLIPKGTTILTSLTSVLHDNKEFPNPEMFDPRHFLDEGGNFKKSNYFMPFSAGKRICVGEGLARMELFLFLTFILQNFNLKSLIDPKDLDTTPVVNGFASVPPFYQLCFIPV

[7] = biological target: T1, Nuclear factor erythroid 2-related factor 2 (Mus musculus); assay: Activation of Nrf2 in mouse BV-2 cells assessed as increase in Nrf2 level in whole cell lysates measured after 3 hrs by immunoblot analysis; format: subcellular; details: filed as activator, dose 0.01-3 µM
[8] = biological target: T1, Nuclear factor erythroid 2-related factor 2 (Mus musculus); assay: Activation of Nrf2 in mouse BV-2 cells assessed as increase in GCLM protein expression at 3 uM measured after 12 hrs by immunoblot analysis; format: cell-based; details: filed as activator
Mus musculus [9] = assay: Antiinflammatory activity against LPS-induced neuroinflammation C57BL/6N mouse model assessed as inhibition of TNF-alpha production in plasma at 20 mg/kg/day, po administered for 3 days followed by LPS administration for 7 days by ELISA; format: functional, organism-based; details: time 10.0 day
[10] = biological target: T1, Nuclear factor erythroid 2-related factor 2 (Mus musculus); assay: Activation of Nrf2 in mouse BV-2 cells assessed as increase in Nrf2 level in whole cell lysates at 3 uM measured after 3 hrs by immunoblot analysis; format: subcellular; details: filed as activator
BV-2 [11] = assay: Antiinflammatory activity against LPS-induced mouse BV-2 cells assessed as inhibition of IL-6 production at 0.1 to 3 uM pretreated for 6 hrs followed by LPS stimulation for 24 hrs by ELISA; format: functional, cell-based; details: dose 0.1-3 µM, time 30.0 hrs
BV-2 [12] = assay: Cytotoxicity against mouse BV-2 cells assessed as effect on cell viability upto 3 uM incubated for 24 hrs by WST assay; format: toxicity, cell-based; details: bv-2, 24 h
[13] = biological target: T1, Nuclear factor erythroid 2-related factor 2 (Mus musculus); assay: Activation of Nrf2 in mouse BV-2 cells assessed as increase in Nrf2 nuclear translocation at 3 uM measured upto 9 hrs by immunoblot analysis relative to control; format: subcellular; details: Nucleus
Mus musculus [14] = assay: as §1, with “dentate gyrus” for “cortex”; format: functional, organism-based; details: time 10.0 day
CYP2D6 = CYP2D6 (Homo sapiens, UniProt P10635); assay: Inhibition of CYP2D6 (unknown origin) assessed as enzyme activity at 10 uM relative to control; format: ADME; design: scale not given: the % may be the effect or the level left; details: read-out: Activity
Chain of CYP2D6 (P10635 whole entry): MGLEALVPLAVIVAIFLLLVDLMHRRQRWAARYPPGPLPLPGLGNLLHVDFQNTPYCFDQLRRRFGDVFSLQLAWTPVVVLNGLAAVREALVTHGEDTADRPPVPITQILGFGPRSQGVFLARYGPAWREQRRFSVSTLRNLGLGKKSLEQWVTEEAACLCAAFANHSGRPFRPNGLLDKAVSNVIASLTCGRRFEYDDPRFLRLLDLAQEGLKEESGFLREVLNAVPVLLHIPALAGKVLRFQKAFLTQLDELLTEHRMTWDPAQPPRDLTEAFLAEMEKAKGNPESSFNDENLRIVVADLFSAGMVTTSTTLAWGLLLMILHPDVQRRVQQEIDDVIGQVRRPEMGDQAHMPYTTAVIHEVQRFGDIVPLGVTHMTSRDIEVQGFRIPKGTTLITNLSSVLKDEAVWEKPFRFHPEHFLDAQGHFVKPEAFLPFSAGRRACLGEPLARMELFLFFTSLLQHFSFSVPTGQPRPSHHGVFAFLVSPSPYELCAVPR

Mus musculus [15] = assay: as §1, with “GFAP” for “IBA1”, “hippocampus CA3 region” for “cortex”; format: functional, organism-based; details: time 10.0 day
[16] = biological target: T1, Nuclear factor erythroid 2-related factor 2 (Mus musculus); assay: Activation of Nrf2 in mouse BV-2 cells assessed as increase in Nrf2 level in whole cell lysates at 3 uM measured after 48 hrs by immunoblot analysis; format: subcellular
[17] = Metabolic stability of the compound in human plasma assessed as parent compound remaining measured after 30 mins; format: ADME, cell-free; details: read-out: Stability
[18] = biological target: T1, Nuclear factor erythroid 2-related factor 2 (Mus musculus); assay: Activation of Nrf2 in mouse BV-2 cells assessed as increase in HO-1 mRNA expression incubated for 3 hrs by qRT-PCR analysis; format: cell-based; details: filed as activator, dose 0.01-3 µM
Mus musculus [19] = assay: as §1, with “hippocampus CA3 region” for “cortex”; format: functional, organism-based; details: time 10.0 day
BV-2 [20] = assay: Antiinflammatory activity against LPS-induced mouse BV-2 cells assessed as inhibition of IL-1 beta mRNA expression at 0.1 to 3 uM pretreated for 6 hrs followed by LPS stimulation for 6 hrs by qRT-PCR analysis; format: functional, cell-based; details: dose 0.1-3 µM, time 12.0 hrs
Mus musculus [21] = assay: as §1, with “hippocampus CA1 region” for “cortex”; format: functional, organism-based; details: time 10.0 day
Mus musculus [22] = assay: as §1, with “GFAP” for “IBA1”; format: functional, organism-based; details: time 10.0 day
BV-2 [23] = assay: Antiinflammatory activity against LPS-induced mouse BV-2 cells assessed as inhibition of NOS2 mRNA expression at 0.1 to 3 uM pretreated for 6 hrs followed by LPS stimulation for 6 hrs by qRT-PCR analysis; format: functional, cell-based; details: dose 0.1-3 µM, time 12.0 hrs
Mus musculus [24] = assay: as §1, with “GFAP” for “IBA1”, “dentate gyrus” for “cortex”; format: functional, organism-based; details: time 10.0 day
[25] = Metabolic stability of the compound in mouse liver microsomes assessed as parent compound remaining measured after 30 mins; format: ADME, Microsome; details: read-out: Stability
BV-2 [26] = assay: Antiinflammatory activity against LPS-induced mouse BV-2 cells assessed as inhibition of iNOS protein expression pretreated for 6 hrs followed by LPS stimulation for 24 hrs by immunoblot analysis; format: functional, cell-based; details: dose 0.001-1 µM, time 30.0 hrs

Activity [2]: Dose-Dependent Effect | Activity [3]: Active | Activity [4]: Dose-Dependent Effect | Activity [6]: Active | activity at 10 µM (CYP2C19): 74.7% | Activity [7]: Dose-Dependent Effect | Activity [8]: Active | Activity [10]: Active | fold change (FC) [13]: > 7 | activity at 10 µM (CYP2D6): > 99% | Activity [16]: inactive | remaining at 0.5 h [17]: 92.8% | Activity [18]: Dose-Dependent Effect | remaining at 0.5 h [25]: 61%
Compound: COc1cccnc1S(=O)(=O)/C=C/c1ncccc1Cl
Activity (Mus musculus [1]): Active | Activity (Mus musculus [5]): Active | Activity (Mus musculus [9]): Active | Activity (BV-2 [11]): Active | Activity (BV-2 [12]): Non-Toxic | Activity (Mus musculus [14]): Active | Activity (Mus musculus [15]): Active | Activity (Mus musculus [19]): Active | Activity (BV-2 [20]): Active | Activity (Mus musculus [21]): Active | Activity (Mus musculus [22]): Active | Activity (BV-2 [23]): Active | Activity (Mus musculus [24]): Active | Activity (BV-2 [26]): Dose-Dependent Effect
